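Where inhibition never reached the appropriate level, the endpoint shown equals the highest concentration tested. Otherwise, values were interpolated linearly from a five-concentration, 48-hour dose response in 96-well plates. GI50: concentration for 50% inhibition of growth. The concentration for full growth arrest is given as TGI.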
Legend:
Test in all cases: NCI tumour cell line growth inhibition, 48 h
SK-OV-3 ovarian = test system: SK-OV-3 ovarian
NCI-H226 lung = test system: NCI-H226 lung
EKVX NSCLC = test system: EKVX NSCLC
SW-620 colon = test system: SW-620 colon
MOLT-4 leukemia = test system: MOLT-4 leukemia
HCT-116 colon = test system: HCT-116 colon
RXF 393 renal = test system: RXF 393 renal
SNB-19 CNS = test system: SNB-19 CNS
K-562 leukemia = test system: K-562 leukemia
HCC-2998 colon = test system: HCC-2998 colon

COc1ccc(/C=C(/C#N)C(N)=O)cc1OC
TGI (SK-OV-3 ovarian): > 100 µM | TGI (NCI-H226 lung): > 100 µM | TGI (EKVX NSCLC): > 100 µM | TGI (SW-620 colon): > 100 µM | TGI (MOLT-4 leukemia): > 100 µM | TGI (HCT-116 colon): > 100 µM | TGI (RXF 393 renal): > 100 µM | TGI (SNB-19 CNS): > 100 µM | TGI (K-562 leukemia): > 100 µM

CCCCC(CC)CN=C(N)NC(N)=NCCCCCCN=C(N)NC(N)=NCC(CC)CCCC (stereo not drawn)
GI50 (SK-OV-3 ovarian): 2.64 µM | TGI (SK-OV-3 ovarian): 6.86 µM | GI50 (NCI-H226 lung): 2.38 µM | TGI (NCI-H226 lung): 7.48 µM | GI50 (EKVX NSCLC): 1.74 µM | TGI (EKVX NSCLC): 4.73 µM | GI50 (RXF 393 renal): 2.27 µM | TGI (RXF 393 renal): 6.43 µM

Cc1cc(N(CCC#N)CCC#N)ccc1N=Nc1cccc(C(=O)O)c1
TGI (HCC-2998 colon): > 100 µM | TGI (SK-OV-3 ovarian): > 100 µM | TGI (NCI-H226 lung): > 100 µM | TGI (EKVX NSCLC): > 100 µM | TGI (SW-620 colon): > 100 µM | TGI (MOLT-4 leukemia): > 100 µM | TGI (RXF 393 renal): > 100 µM | TGI (K-562 leukemia): > 100 µM

COc1ccc(-c2c3c(N)nc(-c4ccncc4)nc3nc3c2c(C)nn3-c2ccccc2)cc1
GI50 (HCC-2998 colon): > 100 µM | TGI (HCC-2998 colon): > 100 µM | GI50 (SK-OV-3 ovarian): 5.25 µM | TGI (SK-OV-3 ovarian): 54 µM | GI50 (NCI-H226 lung): > 100 µM | TGI (NCI-H226 lung): > 100 µM | GI50 (SW-620 colon): 4.36 µM | TGI (SW-620 colon): > 100 µM | GI50 (MOLT-4 leukemia): 8.58 µM | TGI (MOLT-4 leukemia): > 100 µM | GI50 (HCT-116 colon): 2.46 µM | TGI (HCT-116 colon): 13.6 µM | GI50 (RXF 393 renal): 2.72 µM | TGI (RXF 393 renal): 20.6 µM | GI50 (SNB-19 CNS): 65.1 µM | TGI (SNB-19 CNS): > 100 µM | GI50 (K-562 leukemia): 3.13 µM | TGI (K-562 leukemia): > 100 µM

COc1ccc(/C=C2\CCCC3=C2N=C2SC(C)=NN2C3c2ccc(OC)c(OC)c2)cc1OC (stereo not drawn)
GI50 (HCC-2998 colon): > 100 µM | TGI (HCC-2998 colon): > 100 µM | GI50 (SK-OV-3 ovarian): 62.5 µM | TGI (SK-OV-3 ovarian): > 100 µM | GI50 (NCI-H226 lung): 13.3 µM | TGI (NCI-H226 lung): 79.4 µM | GI50 (SW-620 colon): 6.79 µM | TGI (SW-620 colon): 53.8 µM | GI50 (MOLT-4 leukemia): 13.8 µM | TGI (MOLT-4 leukemia): > 100 µM | GI50 (HCT-116 colon): 3.26 µM | TGI (HCT-116 colon): 14.3 µM | GI50 (RXF 393 renal): 3.88 µM | TGI (RXF 393 renal): 18.2 µM | GI50 (SNB-19 CNS): 39.2 µM | TGI (SNB-19 CNS): > 100 µM | GI50 (K-562 leukemia): 3.98 µM | TGI (K-562 leukemia): > 100 µM

CCCNC1=C(C(=O)OCC)C(=O)CO1
TGI (HCC-2998 colon): > 100 µM | TGI (NCI-H226 lung): > 100 µM | TGI (EKVX NSCLC): > 100 µM | TGI (SW-620 colon): > 100 µM | TGI (MOLT-4 leukemia): > 100 µM | TGI (HCT-116 colon): > 100 µM | TGI (RXF 393 renal): > 100 µM | TGI (SNB-19 CNS): > 100 µM | TGI (K-562 leukemia): > 100 µM

CC1=C(C)C(=O)c2c(cc3ccccn23)C1=O
TGI (HCC-2998 colon): 29.9 µM | TGI (SK-OV-3 ovarian): 63.6 µM | TGI (NCI-H226 lung): 58.5 µM | TGI (EKVX NSCLC): 46.4 µM | TGI (SW-620 colon): 35.5 µM | TGI (MOLT-4 leukemia): > 100 µM | TGI (RXF 393 renal): 27.9 µM | TGI (SNB-19 CNS): 28.6 µM | TGI (K-562 leukemia): > 100 µM

C/C(=N\NS(=O)(=O)c1ccccc1)c1ccc(Cl)c(Cl)c1
TGI (HCC-2998 colon): > 100 µM | TGI (SK-OV-3 ovarian): > 100 µM | TGI (NCI-H226 lung): > 100 µM | TGI (EKVX NSCLC): > 100 µM | TGI (SW-620 colon): > 100 µM | TGI (MOLT-4 leukemia): > 100 µM | TGI (HCT-116 colon): > 100 µM | TGI (RXF 393 renal): > 100 µM | TGI (K-562 leukemia): > 100 µM

CC(CCC(=O)O)[C@H]1CCC2[C@@H]3CC[C@@H]4CC(O)CC[C@]4(C)C3CC[C@@]21C (stereo partly drawn)
GI50 (HCC-2998 colon): 22.2 µM | TGI (HCC-2998 colon): 61 µM | GI50 (NCI-H226 lung): 63.5 µM | TGI (NCI-H226 lung): > 100 µM | GI50 (EKVX NSCLC): 44.4 µM | TGI (EKVX NSCLC): > 100 µM | GI50 (SW-620 colon): 42.4 µM | TGI (SW-620 colon): > 100 µM | GI50 (MOLT-4 leukemia): 22 µM | TGI (MOLT-4 leukemia): 79 µM | GI50 (HCT-116 colon): 30.4 µM | TGI (HCT-116 colon): > 100 µM | GI50 (RXF 393 renal): 46.9 µM | TGI (RXF 393 renal): > 100 µM | GI50 (SNB-19 CNS): 56.5 µM | TGI (SNB-19 CNS): > 100 µM | GI50 (K-562 leukemia): 32.6 µM | TGI (K-562 leukemia): > 100 µM

Nc1ccn(CCNCCn2cnc3nc(N)[nH]c(=O)c32)c(=O)n1
TGI (HCC-2998 colon): > 100 µM | TGI (NCI-H226 lung): > 100 µM | TGI (EKVX NSCLC): > 100 µM | TGI (SW-620 colon): > 100 µM | TGI (HCT-116 colon): > 100 µM | TGI (RXF 393 renal): > 100 µM | TGI (SNB-19 CNS): > 100 µM | TGI (K-562 leukemia): > 100 µM

CC1(C)C(=NNC(=O)C[N+](C)(C)C)C(C)(C)C1=NNC(=O)C[N+](C)(C)C
TGI (HCC-2998 colon): > 100 µM | TGI (SK-OV-3 ovarian): > 100 µM | TGI (NCI-H226 lung): > 100 µM | TGI (EKVX NSCLC): > 100 µM | TGI (MOLT-4 leukemia): > 100 µM | TGI (HCT-116 colon): > 100 µM | TGI (RXF 393 renal): > 100 µM | TGI (SNB-19 CNS): > 100 µM | TGI (K-562 leukemia): > 100 µM

CC1=Nc2ccccc2S/C1=C(/C)NNC(=O)C(N)=O
TGI (HCC-2998 colon): > 100 µM | TGI (SK-OV-3 ovarian): > 100 µM | TGI (EKVX NSCLC): > 100 µM | TGI (SW-620 colon): > 100 µM | TGI (MOLT-4 leukemia): > 100 µM | TGI (HCT-116 colon): > 100 µM | TGI (RXF 393 renal): > 100 µM | TGI (SNB-19 CNS): > 100 µM | TGI (K-562 leukemia): > 100 µM

COc1ccc2nc(-c3cccs3)cc(C(O)CN3CCSCC3)c2c1 (stereo not drawn)
TGI (HCC-2998 colon): 58.9 µM | TGI (SK-OV-3 ovarian): > 100 µM | TGI (EKVX NSCLC): 97.1 µM | TGI (SW-620 colon): 93.7 µM | TGI (MOLT-4 leukemia): 56.3 µM | TGI (RXF 393 renal): > 100 µM | TGI (SNB-19 CNS): > 100 µM | TGI (K-562 leukemia): 51.5 µM

COc1ccc2sc3c(NCCCN(C)C)nc4ccccc4c3c(=O)c2c1
GI50 (HCC-2998 colon): 1.7 µM | TGI (HCC-2998 colon): 3.26 µM | GI50 (NCI-H226 lung): 1.67 µM | TGI (NCI-H226 lung): 3.34 µM | GI50 (EKVX NSCLC): 1.51 µM | TGI (EKVX NSCLC): 2.93 µM | GI50 (SW-620 colon): 1.55 µM | TGI (SW-620 colon): 3.04 µM | GI50 (MOLT-4 leukemia): 1.71 µM | TGI (MOLT-4 leukemia): 3.56 µM | GI50 (HCT-116 colon): 1.57 µM | TGI (HCT-116 colon): 3.01 µM | GI50 (RXF 393 renal): 1.22 µM | TGI (RXF 393 renal): 2.53 µM | GI50 (SNB-19 CNS): 1.64 µM | TGI (SNB-19 CNS): 3.06 µM | GI50 (K-562 leukemia): 1.8 µM | TGI (K-562 leukemia): 4.71 µM

Reference: PubChem BioAssay (NCI)
